PubChem BioAssay (NCI)
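These data come from cells grown in 96-well plates and exposed to compound for 48 hours at five concentrations. TGI denotes the concentration required for complete inhibition of growth.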

Legend:
Assay in all cases: NCI-60 cell line screen, 48 h
[1] = test system: NCI-H460 lung
[2] = test system: U251 CNS
[3] = test system: SK-MEL-28 melanoma
[4] = test system: UACC-257 melanoma
[5] = test system: SF-268 CNS
[6] = test system: CAKI-1 renal
[7] = test system: XF 498 CNS
[8] = test system: LOX IMVI melanoma
[9] = test system: SK-MEL-5 melanoma
[10] = test system: IGROV1 ovarian
[11] = test system: DLD-1 colon
[12] = test system: HOP-62 NSCLC
[13] = test system: HL-60(TB) leukemia
[14] = test system: KM12 colon
[15] = test system: OVCAR-4 ovarian
[16] = test system: KM20L2 colon
[17] = test system: K-562 leukemia
[18] = test system: NCI-H522 lung
[19] = test system: UO-31 renal
[20] = test system: HCT-15 colon
[21] = test system: HCT-116 colon
[22] = test system: UACC-62 melanoma
[23] = test system: DMS 114 small cell lung
[24] = test system: RXF 393 renal
[25] = test system: HOP-18 NSCLC
[26] = test system: SF-539 CNS
[27] = test system: M19-MEL melanoma
[28] = test system: SW-620 colon
[29] = test system: SNB-75 CNS
[30] = test system: LXFL 529 NSCLC
[31] = test system: MOLT-4 leukemia
[32] = test system: OVCAR-8 ovarian
[33] = test system: NCI-H23 lung
[34] = test system: OVCAR-5 ovarian
[35] = test system: M14 melanoma
[36] = test system: SK-MEL-2 melanoma
[37] = test system: MALME-3M melanoma
[38] = test system: HCC-2998 colon
[39] = test system: RPMI-8226 leukemia
[40] = test system: A549 NSCLC
[41] = test system: 786-0 renal
[42] = test system: SR leukemia
[43] = test system: SN12C renal
[44] = test system: TK-10 renal
[45] = test system: A498 renal
[46] = test system: OVCAR-3 ovarian
[47] = test system: CCRF-CEM leukemia
[48] = test system: HT29 colon
[49] = test system: SNB-19 CNS
[50] = test system: EKVX NSCLC
[51] = test system: ACHN renal
[52] = test system: SK-OV-3 ovarian
[53] = test system: SNB-78 CNS
[54] = test system: SF-295 CNS
[55] = test system: DMS 273 small cell lung
[56] = test system: COLO 205 colon
[57] = test system: NCI-H226 lung
[58] = test system: HOP-92 NSCLC

## O=C(/C(=C\c1ccccc1)CN1CCOCC1)c1ccc(Br)cc1
[1]
  TGI: 8.79 µM
[2]
  TGI: 6.34 µM
[3]
  TGI: 3.85 µM
[4]
  TGI: 8.93 µM
[5]
  TGI: 9.9 µM
[6]
  TGI: 3.95 µM
[7]
  TGI: 9.72 µM
[8]
  TGI: 3.22 µM
[9]
  TGI: 4.08 µM
[10]
  TGI: 9.32 µM
[11]
  TGI: 3.13 µM
[12]
  TGI: 13.1 µM
[13]
  TGI: 4.48 µM
[14]
  TGI: 3.74 µM
[15]
  TGI: 8.11 µM
[16]
  TGI: 7.12 µM
[17]
  TGI: 15.9 µM
[18]
  TGI: 2.59 µM
[19]
  TGI: 3.29 µM
[20]
  TGI: 4.22 µM
[21]
  TGI: 3.2 µM
[22]
  TGI: 2.98 µM
[23]
  TGI: 4.5 µM
[24]
  TGI: 5.99 µM
[25]
  TGI: 3.85 µM
[26]
  TGI: 5.9 µM
[27]
  TGI: 3.43 µM
[28]
  TGI: 2.72 µM
[29]
  TGI: 24.9 µM
[30]
  TGI: 4.67 µM
[31]
  TGI: 19 µM
[32]
  TGI: 3.34 µM
[33]
  TGI: 8.48 µM
[34]
  TGI: 9.14 µM
[35]
  TGI: 3.27 µM
[36]
  TGI: 3.74 µM
[37]
  TGI: 3.31 µM
[38]
  TGI: 29.6 µM
[39]
  TGI: 10.7 µM
[40]
  TGI: 17 µM
[41]
  TGI: 3.13 µM
[42]
  TGI: 17.4 µM
[43]
  TGI: 4.35 µM
[44]
  TGI: 12.2 µM
[45]
  TGI: 12.3 µM
[46]
  TGI: 6.93 µM
[47]
  TGI: 11.1 µM
[48]
  TGI: 4.56 µM
[49]
  TGI: 12.7 µM
[50]
  TGI: 9.47 µM
[51]
  TGI: 3.42 µM
[52]
  TGI: 11.2 µM
[53]
  TGI: 20.6 µM
[54]
  TGI: 15.6 µM
[55]
  TGI: 6.47 µM
[56]
  TGI: 7.71 µM
[57]
  TGI: 12.7 µM
[58]
  TGI: 10.8 µM

## Cc1cccc(C)c1NC(=O)CCC(=O)CC(=O)C(C)C
[1]
  TGI: > 100 µM
[2]
  TGI: > 100 µM
[3]
  TGI: > 100 µM
[4]
  TGI: > 100 µM
[5]
  TGI: > 100 µM
[6]
  TGI: > 100 µM
[7]
  TGI: > 100 µM
[9]
  TGI: > 100 µM
[10]
  TGI: > 100 µM
[11]
  TGI: > 100 µM
[12]
  TGI: > 100 µM
[13]
  TGI: > 100 µM
[14]
  TGI: > 100 µM
[15]
  TGI: > 100 µM
[16]
  TGI: > 100 µM
[17]
  TGI: > 100 µM
[18]
  TGI: > 100 µM
[19]
  TGI: > 100 µM
[20]
  TGI: > 100 µM
[21]
  TGI: > 100 µM
[22]
  TGI: > 100 µM
[23]
  TGI: > 100 µM
[24]
  TGI: > 100 µM
[25]
  TGI: > 100 µM
[26]
  TGI: > 100 µM
[27]
  TGI: > 100 µM
[28]
  TGI: > 100 µM
[29]
  TGI: > 100 µM
[30]
  TGI: > 100 µM
[31]
  TGI: > 100 µM
[32]
  TGI: > 100 µM
[33]
  TGI: > 100 µM
[34]
  TGI: > 100 µM
[35]
  TGI: > 100 µM
[36]
  TGI: > 100 µM
[37]
  TGI: > 100 µM
[38]
  TGI: > 100 µM
[39]
  TGI: > 100 µM
[40]
  TGI: > 100 µM
[41]
  TGI: > 100 µM
[42]
  TGI: > 100 µM
[43]
  TGI: > 100 µM
[44]
  TGI: > 100 µM
[45]
  TGI: > 100 µM
[46]
  TGI: > 100 µM
[47]
  TGI: > 100 µM
[48]
  TGI: > 100 µM
[49]
  TGI: > 100 µM
[50]
  TGI: > 100 µM
[51]
  TGI: > 100 µM
[52]
  TGI: > 100 µM
[53]
  TGI: > 100 µM
[54]
  TGI: > 100 µM
[55]
  TGI: > 100 µM
[56]
  TGI: > 100 µM
[57]
  TGI: > 100 µM
[58]
  TGI: > 100 µM

## Cc1cccc(C)c1NC(=O)C(=O)C(C#N)c1ccccc1Cl (configuration not stated)
[1]
  TGI: > 100 µM
[2]
  TGI: > 100 µM
[3]
  TGI: > 100 µM
[4]
  TGI: > 100 µM
[5]
  TGI: > 100 µM
[6]
  TGI: > 100 µM
[7]
  TGI: > 100 µM
[9]
  TGI: > 100 µM
[10]
  TGI: > 100 µM
[11]
  TGI: > 100 µM
[12]
  TGI: > 100 µM
[13]
  TGI: > 100 µM
[14]
  TGI: > 100 µM
[15]
  TGI: > 100 µM
[16]
  TGI: > 100 µM
[17]
  TGI: > 100 µM
[18]
  TGI: > 100 µM
[19]
  TGI: > 100 µM
[20]
  TGI: > 100 µM
[21]
  TGI: > 100 µM
[22]
  TGI: > 100 µM
[23]
  TGI: > 100 µM
[24]
  TGI: > 100 µM
[25]
  TGI: > 100 µM
[26]
  TGI: > 100 µM
[27]
  TGI: > 100 µM
[28]
  TGI: > 100 µM
[29]
  TGI: > 100 µM
[30]
  TGI: > 100 µM
[31]
  TGI: > 100 µM
[32]
  TGI: > 100 µM
[33]
  TGI: > 100 µM
[34]
  TGI: > 100 µM
[35]
  TGI: > 100 µM
[36]
  TGI: > 100 µM
[37]
  TGI: > 100 µM
[38]
  TGI: > 100 µM
[39]
  TGI: > 100 µM
[40]
  TGI: > 100 µM
[41]
  TGI: > 100 µM
[42]
  TGI: > 100 µM
[43]
  TGI: > 100 µM
[44]
  TGI: > 100 µM
[45]
  TGI: > 100 µM
[46]
  TGI: > 100 µM
[47]
  TGI: > 100 µM
[48]
  TGI: > 100 µM
[49]
  TGI: > 100 µM
[50]
  TGI: > 100 µM
[51]
  TGI: > 100 µM
[52]
  TGI: > 100 µM
[53]
  TGI: > 100 µM
[54]
  TGI: > 100 µM
[55]
  TGI: > 100 µM
[56]
  TGI: > 100 µM
[57]
  TGI: > 100 µM
[58]
  TGI: > 100 µM
